Measurements as given in patent publication US10590078B2, “Sodium channel blockers” (Daewoong Pharmaceutical Co., Ltd., priority 2015, dated 2020).

Target: human sodium ion channel 1.7 (hNav1.7) (Homo sapiens, UniProt Q15858)
Test: Blocking effect against sodium ion channel Nav1.7, IonFlux16 auto patch clamp in hNav1.7 HEK293 cells
Format: cell-based
Conditions: hNav1.7 HEK293 cells; inhibition of peak current after 50 seconds treatment; eight concentrations; read-out: IC50

human sodium ion channel 1.7 (hNav1.7), sequence (Q15858 whole entry): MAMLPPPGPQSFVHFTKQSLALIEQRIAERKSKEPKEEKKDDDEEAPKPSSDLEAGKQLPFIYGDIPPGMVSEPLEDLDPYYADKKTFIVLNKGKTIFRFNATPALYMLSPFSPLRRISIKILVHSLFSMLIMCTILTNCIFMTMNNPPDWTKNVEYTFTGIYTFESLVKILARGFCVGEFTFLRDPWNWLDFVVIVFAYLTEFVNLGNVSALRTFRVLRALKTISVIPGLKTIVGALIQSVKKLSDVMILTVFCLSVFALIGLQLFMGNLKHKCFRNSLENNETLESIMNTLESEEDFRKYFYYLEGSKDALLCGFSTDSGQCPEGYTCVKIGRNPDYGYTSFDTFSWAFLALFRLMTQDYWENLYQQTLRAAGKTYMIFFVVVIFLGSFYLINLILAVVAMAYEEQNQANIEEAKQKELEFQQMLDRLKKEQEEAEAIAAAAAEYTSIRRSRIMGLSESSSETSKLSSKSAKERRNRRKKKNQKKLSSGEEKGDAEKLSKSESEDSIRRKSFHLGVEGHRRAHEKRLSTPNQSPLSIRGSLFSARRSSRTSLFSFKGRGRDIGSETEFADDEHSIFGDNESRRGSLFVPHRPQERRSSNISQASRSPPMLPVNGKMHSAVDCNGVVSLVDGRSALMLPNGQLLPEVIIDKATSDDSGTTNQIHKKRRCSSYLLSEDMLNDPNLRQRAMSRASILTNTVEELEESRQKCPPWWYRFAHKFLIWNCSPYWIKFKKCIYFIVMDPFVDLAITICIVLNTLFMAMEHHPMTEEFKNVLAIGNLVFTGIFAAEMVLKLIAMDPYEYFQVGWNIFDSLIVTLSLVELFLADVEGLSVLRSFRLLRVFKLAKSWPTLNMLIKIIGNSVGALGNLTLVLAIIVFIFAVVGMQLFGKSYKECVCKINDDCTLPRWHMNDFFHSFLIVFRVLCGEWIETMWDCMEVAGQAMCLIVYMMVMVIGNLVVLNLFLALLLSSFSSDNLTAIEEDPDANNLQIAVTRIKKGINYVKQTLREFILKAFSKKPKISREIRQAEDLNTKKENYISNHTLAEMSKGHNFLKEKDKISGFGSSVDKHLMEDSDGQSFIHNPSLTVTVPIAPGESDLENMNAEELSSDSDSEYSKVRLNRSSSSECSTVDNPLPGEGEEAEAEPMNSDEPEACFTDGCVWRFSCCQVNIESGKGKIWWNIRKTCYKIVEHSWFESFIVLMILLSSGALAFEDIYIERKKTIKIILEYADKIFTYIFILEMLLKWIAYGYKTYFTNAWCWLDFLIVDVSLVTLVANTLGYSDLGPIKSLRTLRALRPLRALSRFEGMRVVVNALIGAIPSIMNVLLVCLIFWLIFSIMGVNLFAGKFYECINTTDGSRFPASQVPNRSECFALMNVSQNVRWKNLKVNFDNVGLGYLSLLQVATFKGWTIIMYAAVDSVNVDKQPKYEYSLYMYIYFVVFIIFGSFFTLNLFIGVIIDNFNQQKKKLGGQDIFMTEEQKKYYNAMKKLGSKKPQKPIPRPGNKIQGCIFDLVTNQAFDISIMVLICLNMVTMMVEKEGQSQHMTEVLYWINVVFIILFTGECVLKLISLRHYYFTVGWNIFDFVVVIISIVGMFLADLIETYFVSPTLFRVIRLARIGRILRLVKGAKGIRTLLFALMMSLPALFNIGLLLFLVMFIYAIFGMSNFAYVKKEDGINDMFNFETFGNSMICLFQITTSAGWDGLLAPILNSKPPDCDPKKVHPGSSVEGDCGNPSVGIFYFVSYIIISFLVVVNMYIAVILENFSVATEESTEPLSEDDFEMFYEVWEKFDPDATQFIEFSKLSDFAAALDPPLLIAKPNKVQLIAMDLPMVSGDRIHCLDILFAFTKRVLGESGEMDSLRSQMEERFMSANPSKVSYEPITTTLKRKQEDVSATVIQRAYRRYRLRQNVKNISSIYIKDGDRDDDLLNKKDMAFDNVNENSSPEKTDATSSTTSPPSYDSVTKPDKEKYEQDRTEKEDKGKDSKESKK

Row | SMILES | IC50 [µM]
1 | COc1ccccc1-c1nn(-c2ccc(C(=O)NS(C)(=O)=O)cc2C#N)c2ccc(Cl)cc12 [Example 92, 4-(5-chloro-3-(2-methoxyphenyl)-1H-indazol-1-yl)-3-cyano-N-(methylsulfonyl)benzamide] | 5.29
2 | CS(=O)(=O)NC(=O)c1cc(Cl)c(-n2nc(Cl)c3ccc(-c4ccccc4)cc32)cc1F [Example 263, 5-chloro-4-(3-chloro-6-phenyl-1H-indazol-1-yl)-2-fluoro-N-(methylsulfonyl)benzamide] | > 10
3 | CS(=O)(=O)NC(=O)c1cc(Cl)c(-n2nc(-c3ccc(F)cc3Cl)c3cc(F)ccc32)cc1F [Example 158, 5-chloro-4-(3-(2-chloro-4-fluorophenyl)-5-fluoro-1H-indazol-1-yl)-2-fluoro-N-(methylsulfonyl)benzamide] | 0.08
4 | CS(=O)(=O)NC(=O)c1cc(F)c(-n2nc(-c3ccc(C(F)(F)F)cc3)c3cc(Cl)ccc32)cc1Cl [Example 111, 2-chloro-4-(5-chloro-3-(4-(trifluoromethyl)phenyl)-1H-indazol-1-yl)-5-fluoro-N-(methylsulfonyl)benzamide] | 0.552
5 | CS(=O)(=O)NC(=O)c1cc(Cl)c(-n2nc(-c3cccc(C#N)c3)c3cc(F)ccc32)cc1F [Example 166, 5-chloro-4-(3-(3-cyanophenyl)-5-fluoro-1H-indazol-1-yl)-2-fluoro-N-(methylsulfonyl)benzamide] | 0.228
6 | CS(=O)(=O)NC(=O)c1cc(Cl)c(-n2cc(-c3ccc(F)cc3Cl)c3cc(F)cnc32)cc1F [Example 202, 5-chloro-4-(3-(2-chloro-4-fluorophenyl)-5-fluoro-1H-pyrrolo[2,3-b]pyridin-1-yl)-2-fluoro-N-(methylsulfonyl)benzamide] | 0.05
7 | CS(=O)(=O)NC(=O)c1cc(Cl)c(-n2cc(Cl)c3ccc(OCc4ccccc4)cc32)cc1F [Example 271, 4-(6-(benzyloxy)-3-chloro-1H-indol-1-yl)-5-chloro-2-fluoro-N-(methylsulfonyl)benzamide] | 2.13
8 | CS(=O)(=O)NC(=O)c1ccc(-n2nc(-c3ccc(C#N)cc3)c3cc(Cl)ccc32)c(C#N)c1 [Example 96, 4-(5-chloro-3-(4-cyanophenyl)-1H-indazol-1-yl)-3-cyano-N-(methylsulfonyl)benzamide] | > 10
9 | Cc1cccc(-c2nn(-c3cc(F)c(C(=O)NS(C)(=O)=O)cc3Cl)c3ccc(F)cc23)c1 [Example 152, 5-chloro-2-fluoro-4-(5-fluoro-3-(m-tolyl)-1H-indazol-1-yl)-N-(methylsulfonyl)benzamide] | 0.08
10 | CS(=O)(=O)NC(=O)c1cc(Cl)c(-n2cc(-c3cccc(F)c3)c3cc(Cl)cnc32)cc1F [Example 190, 5-chloro-4-(5-chloro-3-(3-fluorophenyl)-1H-pyrrolo[2,3-b]pyridin-1-yl)-2-fluoro-N-(methylsulfonyl)benzamide] | 0.17
11 | CS(=O)(=O)NC(=O)c1cc(Cl)c(-n2cc(-c3ccccc3C(F)(F)F)c3cc(Cl)cnc32)cc1F [Example 193, 5-chloro-4-(5-chloro-3-(2-(trifluoromethyl)phenyl)-1H-pyrrolo[2,3-b]pyridin-1-yl)-2-fluoro-N-(methylsulfonyl)benzamide] | 0.1
12 | CS(=O)(=O)NC(=O)c1cc(Cl)c(-n2nc(-c3cccc(C(F)(F)F)c3)c3cc(F)ccc32)cc1F [Example 150, 5-chloro-2-fluoro-4-(5-fluoro-3-(3-(trifluoromethyl)phenyl)-1H-indazol-1-yl)-N-(methylsulfonyl)benzamide] | 0.18
13 | CS(=O)(=O)NC(=O)c1ccc(-n2nc(-c3cccc(C(F)(F)F)c3)c3cc(Cl)ccc32)c(F)c1 [Example 121, 4-(5-chloro-3-(3-(trifluoromethyl)phenyl)-1H-indazol-1-yl)-3-fluoro-N-(methylsulfonyl)benzamide] | 1.09
14 | CS(=O)(=O)NC(=O)c1ccc(-n2nc(-c3cccc(C#N)c3)c3cc(Cl)ccc32)c(F)c1 [Example 119, 4-(5-chloro-3-(3-cyanophenyl)-1H-indazol-1-yl)-3-fluoro-N-(methylsulfonyl)benzamide] | 1.79
15 | CS(=O)(=O)NC(=O)c1cc(Cl)c(-n2cc(-c3ccc(F)cc3F)c3cc(Cl)cnc32)cc1F [Example 186, 5-chloro-4-(5-chloro-3-(2,4-difluorophenyl)-1H-pyrrolo[2,3-b]pyridin-1-yl)-2-fluoro-N-(methylsulfonyl)benzamide] | 0.08

The remaining lines, values ahead:

Row | IC50 [µM] | SMILES
16 | 0.04 | CS(=O)(=O)NC(=O)c1cc(Cl)c(-n2nc(-c3ccc(F)cc3F)c3cc(Cl)ccc32)cc1F [Example 56, 5-chloro-4-(5-chloro-3-(2,4-difluorophenyl)-1H-indazol-1-yl)-2-fluoro-N-(methylsulfonyl)benzamide]
17 | > 10 | O=S(=O)(Nc1cscn1)c1cc(F)c(-n2nc(Cl)c3cc(C(F)(F)F)ccc32)cc1F [Example 279, 4-(3-chloro-5-(trifluoromethyl)-1H-indazol-1-yl)-2,5-difluoro-N-(thiazol-4-yl)benzenesulfonamide]
18 | 0.59 | CS(=O)(=O)NC(=O)c1cc(Cl)c(-n2nc(-c3ccnc(F)c3)c3cc(Cl)ccc32)cc1F [Example 68, 5-chloro-4-(5-chloro-3-(2-fluoropyridin-4-yl)-1H-indazol-1-yl)-2-fluoro-N-(methylsulfonyl)benzamide]
19 | > 10 | Cn1nccc1-c1ccc2c(cnn2-c2cc(F)c(S(=O)(=O)Nc3cscn3)cc2Cl)c1 [Example 285, 5-chloro-2-fluoro-4-(5-(1-methyl-1H-pyrazol-5-yl)-1H-indazol-1-yl)-N-(thiazol-4-yl)benzenesulfonamide]
20 | > 10 | CS(=O)(=O)NC(=O)c1cc(Cl)c(-n2nc(N3CCOCC3)c3cc(Cl)ccc32)cc1F [Example 86, 5-chloro-4-(5-chloro-3-morpholino-1H-indazol-1-yl)-2-fluoro-N-(methylsulfonyl)benzamide]
21 | > 10 | O=S(=O)(Nc1cscn1)c1cc(Cl)c(-n2nc(Cl)c3cc(-c4ccccc4)ccc32)cc1F [Example 276, 5-chloro-4-(3-chloro-5-phenyl-1H-indazol-1-yl)-2-fluoro-N-(thiazol-4-yl)benzenesulfonamide]
22 | > 10 | O=C(Nc1nccs1)c1cc(Cl)c(-n2nc(-c3ccc(Cl)cc3F)c3cc(Cl)ccc32)cc1F [Example 294, 5-chloro-4-(5-chloro-3-(4-chloro-2-fluorophenyl)-1H-indazol-1-yl)-2-fluoro-N-(thiazol-2-yl)benzamide]
23 | 0.037 | CS(=O)(=O)NC(=O)c1cc(Cl)c(-n2nc(-c3cc(Cl)ccc3F)c3cc(Cl)ccc32)cc1F [Example 69, 5-chloro-4-(5-chloro-3-(5-chloro-2-fluorophenyl)-1H-indazol-1-yl)-2-fluoro-N-(methylsulfonyl)benzamide]
24 | > 10 | Cc1cnc(NC(=O)c2cc(Cl)c(-n3nc(-c4ccc(Cl)cc4F)c4cc(Cl)ccc43)cc2F)s1 [Example 295, 5-chloro-4-(5-chloro-3-(4-chloro-2-fluorophenyl)-1H-indazol-1-yl)-2-fluoro-N-(5-methylthiazol-2-yl)benzamide]
25 | 1.01 | CS(=O)(=O)NC(=O)c1cc(Cl)c(-n2nc(/C=C/c3ccccc3Cl)c3cc(Cl)ccc32)cc1F [Example 136, (E)-5-chloro-4-(5-chloro-3-(2-chlorostyryl)-1H-indazol-1-yl)-2-fluoro-N-(methylsulfonyl)benzamide]
26 | 0.752 | CS(=O)(=O)NC(=O)c1cc(F)c(-n2nc(-c3ccccc3F)c3cc(Cl)ccc32)cc1Cl [Example 113, 2-chloro-4-(5-chloro-3-(2-fluorophenyl)-1H-indazol-1-yl)-5-fluoro-N-(methylsulfonyl)benzamide]
27 | 0.175 | CS(=O)(=O)NC(=O)c1cc(Cl)c(-n2nc(Cl)c3cc(Br)ccc32)cc1F [Example 21, 4-(5-bromo-3-chloro-1H-indazol-1-yl)-5-chloro-2-fluoro-N-(methylsulfonyl)benzamide]
28 | > 10 | O=S(=O)(Nc1cscn1)c1cc(Cl)c(-n2nc(-c3cn[nH]c3)c3cc(Cl)ccc32)cc1F [Example 284, 5-chloro-4-(5-chloro-3-(1H-pyrazol-4-yl)-1H-indazol-1-yl)-2-fluoro-N-(thiazol-4-yl)benzenesulfonamide]
29 | 0.33 | Cc1nn(-c2cc(F)c(S(=O)(=O)Nc3cscn3)cc2Cl)c2ccc(Cl)cc12 [Example 277, 5-chloro-4-(5-chloro-3-methyl-1H-indazol-1-yl)-2-fluoro-N-(thiazol-4-yl)benzenesulfonamide]
30 | > 10 | CS(=O)(=O)NC(=O)c1cc(Cl)c(-n2nc(Cl)c3cc(O)ccc32)cc1F [Example 16, 5-chloro-4-(3-chloro-5-hydroxy-1H-indazol-1-yl)-2-fluoro-N-(methylsulfonyl)benzamide]
31 | 0.42 | CS(=O)(=O)NC(=O)c1cc(Cl)c(-n2nc(Cl)c3cc(-c4cc(Cl)ccc4F)ccc32)cc1F [Example 254, 5-chloro-4-(3-chloro-5-(5-chloro-2-fluorophenyl)-1H-indazol-1-yl)-2-fluoro-N-(methylsulfonyl)benzamide]
32 | 0.028 | CS(=O)(=O)NC(=O)c1cc(Cl)c(-n2nc(-c3ccc(C(F)(F)F)cc3)c3cc(Cl)ccc32)cc1F [Example 65, 5-chloro-4-(5-chloro-3-(4-(trifluoromethyl)phenyl)-1H-indazol-1-yl)-2-fluoro-N-(methylsulfonyl)benzamide]
33 | 0.283 | CS(=O)(=O)NC(=O)c1cc(Cl)c(-n2nc(Cl)c3cc(-c4ccc(F)c(C#N)c4)ccc32)cc1F [Example 239, 5-chloro-4-(3-chloro-5-(3-cyano-4-fluorophenyl)-1H-indazol-1-yl)-2-fluoro-N-(methylsulfonyl)benzamide]
34 | 0.108 | COc1ccc(-c2nn(-c3cc(F)c(C(=O)NS(C)(=O)=O)cc3Cl)c3ccc(Cl)cc23)cc1 [Example 59, 5-chloro-4-(5-chloro-3-(4-methoxyphenyl)-1H-indazol-1-yl)-2-fluoro-N-(methylsulfonyl)benzamide]
35 | 0.03 | CS(=O)(=O)NC(=O)c1cc(Cl)c(-n2nc(-c3cc(F)cc(Cl)c3)c3cc(Cl)ccc32)cc1F [Example 73, 5-chloro-4-(5-chloro-3-(3-chloro-5-fluorophenyl)-1H-indazol-1-yl)-2-fluoro-N-(methylsulfonyl)benzamide]
